#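 Where inhibition never reached the appropriate level, the endpoint shown equals the highest concentration tested. Otherwise, values were interpolated linearly from a five-concentration, 48-hour dose response in 96-well plates. GI50: concentration for 50% inhibition of growth. The concentration for full growth arrest is given as TGI.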
# Legend:
# Assay in all cases: DTP human tumour cell line panel, 48 h
# MDA-MB-435 = tested on: MDA-MB-435
# UO-31 renal = tested on: UO-31 renal
# NCI-H226 lung = tested on: NCI-H226 lung
# OVCAR-5 ovarian = tested on: OVCAR-5 ovarian
# SNB-75 CNS = tested on: SNB-75 CNS
# SK-MEL-5 melanoma = tested on: SK-MEL-5 melanoma
# SF-268 CNS = tested on: SF-268 CNS
# HS 578T breast = tested on: HS 578T breast
# ACHN renal = tested on: ACHN renal
# SK-OV-3 ovarian = tested on: SK-OV-3 ovarian
# SK-MEL-28 melanoma = tested on: SK-MEL-28 melanoma
# RXF 393 renal = tested on: RXF 393 renal
# HCC-2998 colon = tested on: HCC-2998 colon
# SN12C renal = tested on: SN12C renal
# MCF7 breast = tested on: MCF7 breast
# SF-539 CNS = tested on: SF-539 CNS
# U251 CNS = tested on: U251 CNS
# NCI-H460 lung = tested on: NCI-H460 lung
# SF-295 CNS = tested on: SF-295 CNS
# TK-10 renal = tested on: TK-10 renal
# RPMI-8226 leukemia = tested on: RPMI-8226 leukemia
# BT-549 breast = tested on: BT-549 breast
# HOP-62 NSCLC = tested on: HOP-62 NSCLC
# HCT-116 colon = tested on: HCT-116 colon
# UACC-62 melanoma = tested on: UACC-62 melanoma
# COLO 205 colon = tested on: COLO 205 colon
# SW-620 colon = tested on: SW-620 colon
# T-47D breast = tested on: T-47D breast
# UACC-257 melanoma = tested on: UACC-257 melanoma
# HOP-92 NSCLC = tested on: HOP-92 NSCLC
# K-562 leukemia = tested on: K-562 leukemia
# OVCAR-4 ovarian = tested on: OVCAR-4 ovarian
# HL-60(TB) leukemia = tested on: HL-60(TB) leukemia
# SNB-19 CNS = tested on: SNB-19 CNS
# EKVX NSCLC = tested on: EKVX NSCLC
# CCRF-CEM leukemia = tested on: CCRF-CEM leukemia
# PC-3 prostate = tested on: PC-3 prostate
# KM12 colon = tested on: KM12 colon
# A549 NSCLC = tested on: A549 NSCLC
# MOLT-4 leukemia = tested on: MOLT-4 leukemia
# DU-145 prostate = tested on: DU-145 prostate
# 786-0 renal = tested on: 786-0 renal
# LOX IMVI melanoma = tested on: LOX IMVI melanoma
# SR leukemia = tested on: SR leukemia
# HCT-15 colon = tested on: HCT-15 colon
# HT29 colon = tested on: HT29 colon
# MDA-MB-231 breast = tested on: MDA-MB-231 breast
# M14 melanoma = tested on: M14 melanoma
# SK-MEL-2 melanoma = tested on: SK-MEL-2 melanoma
# IGROV1 ovarian = tested on: IGROV1 ovarian
# CAKI-1 renal = tested on: CAKI-1 renal
smiles,measurement,setting,value
N=C(N)c1ccc(-c2ccc(-c3ccc(Cl)cc3Cl)o2)cc1,GI50,MDA-MB-435,1700 nM
same,TGI,MDA-MB-435,3.09 µM
same,GI50,UO-31 renal,1670 nM
same,TGI,UO-31 renal,3.18 µM
same,GI50,NCI-H226 lung,1820 nM
same,TGI,NCI-H226 lung,4.28 µM
same,GI50,OVCAR-5 ovarian,1530 nM
same,TGI,OVCAR-5 ovarian,2.95 µM
same,GI50,SNB-75 CNS,1400 nM
same,TGI,SNB-75 CNS,2.73 µM
same,GI50,SK-MEL-5 melanoma,1740 nM
same,TGI,SK-MEL-5 melanoma,3.13 µM
same,GI50,SF-268 CNS,2030 nM
same,TGI,SF-268 CNS,4.65 µM
same,GI50,HS 578T breast,2130 nM
same,TGI,HS 578T breast,4.99 µM
same,GI50,ACHN renal,1680 nM
same,TGI,ACHN renal,3.06 µM
same,GI50,SK-OV-3 ovarian,1620 nM
same,TGI,SK-OV-3 ovarian,3.23 µM
same,GI50,SK-MEL-28 melanoma,1610 nM
same,TGI,SK-MEL-28 melanoma,3.03 µM
CCCCCCc1cc2cc(-c3csc(-c4ccc(OC)cc4)n3)c(=O)oc2cc1O,TGI,RXF 393 renal,29.2 µM
same,TGI,MDA-MB-435,18.4 µM
same,TGI,HCC-2998 colon,31.5 µM
same,TGI,SN12C renal,23.6 µM
same,TGI,UO-31 renal,19.8 µM
same,TGI,MCF7 breast,53.2 µM
same,TGI,NCI-H226 lung,30.6 µM
same,TGI,SF-539 CNS,25.6 µM
same,TGI,U251 CNS,18.7 µM
same,TGI,NCI-H460 lung,41 µM
same,TGI,SF-295 CNS,28.5 µM
same,TGI,TK-10 renal,34.1 µM
same,TGI,RPMI-8226 leukemia,> 100 µM
same,TGI,BT-549 breast,7.38 µM
same,TGI,OVCAR-5 ovarian,79.9 µM
same,TGI,HOP-62 NSCLC,29.6 µM
same,TGI,HCT-116 colon,20.1 µM
same,TGI,UACC-62 melanoma,24.6 µM
same,TGI,COLO 205 colon,> 100 µM
same,TGI,SNB-75 CNS,47.2 µM
same,TGI,SW-620 colon,34.3 µM
same,TGI,SK-MEL-5 melanoma,47.7 µM
same,TGI,SF-268 CNS,14.9 µM
same,TGI,T-47D breast,24.1 µM
same,TGI,UACC-257 melanoma,32.6 µM
same,TGI,HOP-92 NSCLC,16.2 µM
same,TGI,K-562 leukemia,> 100 µM
same,TGI,OVCAR-4 ovarian,7.39 µM
same,TGI,HL-60(TB) leukemia,> 100 µM
same,TGI,HS 578T breast,60.7 µM
same,TGI,SNB-19 CNS,36 µM
same,TGI,EKVX NSCLC,45.1 µM
same,TGI,CCRF-CEM leukemia,> 100 µM
same,TGI,PC-3 prostate,41.5 µM
same,TGI,KM12 colon,68.2 µM
same,TGI,A549 NSCLC,32.8 µM
same,TGI,MOLT-4 leukemia,> 100 µM
same,TGI,DU-145 prostate,33.6 µM
same,TGI,786-0 renal,18 µM
same,TGI,LOX IMVI melanoma,30.4 µM
same,TGI,SR leukemia,> 100 µM
same,TGI,HCT-15 colon,46.8 µM
same,TGI,HT29 colon,> 100 µM
same,TGI,MDA-MB-231 breast,25.3 µM
same,TGI,ACHN renal,25.1 µM
same,TGI,SK-OV-3 ovarian,33.1 µM
same,TGI,SK-MEL-28 melanoma,24.6 µM
same,TGI,M14 melanoma,27.5 µM
same,TGI,SK-MEL-2 melanoma,32 µM
same,TGI,IGROV1 ovarian,19.1 µM
same,TGI,CAKI-1 renal,20 µM
